Laboratory results from US20120164674A1, “DEVICES AND WASHES FOR BIOMARKER STABILIZATION” (priority 2010, published 2012).

T1: Lysozyme (Homo sapiens, UniProt P61626)
T1 construct: from tissue; host or cells: saliva (3.5% dilute or 100%)
T1 sequence (P61626 19-148): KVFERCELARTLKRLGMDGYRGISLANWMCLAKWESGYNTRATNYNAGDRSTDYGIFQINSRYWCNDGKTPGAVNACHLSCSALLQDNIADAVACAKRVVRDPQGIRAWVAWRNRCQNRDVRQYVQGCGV

B1: Soybeans: primary soybean protease inhibitor, 20.7-22.3 kDa (protein, UniProt P01070 25-205, looked up)
Trypsin inhibitor A: DFVLDNEGNPLENGGTYYILSDITAFGGIRAAPTGNERCPLTVVQSRNELDKGIGTIISSPYRIRFIAEGHPLSLKFDSFAVIMLCVGIPTEWSVVEDLPEGPAVKIGENKDAMDGWFRLERVSDDEFNNYKLVFCPQQAEDDKCGDIGISIDHDDGTRRLVVSKNKPLVVQFQKLDKESL

Legend:
peroxidase = test: Peroxidase assay in saliva (Amplex Red); assay type: biochemical; settings: 500 ppm, 30 minutes, FIGS. 26-29
Galactose Oxidase = settings: dilute (3.5%) saliva; FIG. 13
Lysozyme = biological target: T1, Lysozyme; test: Lysozyme inhibition saliva screening (fluorescein-labeled Micrococcus lysodeikticus); assay type: biochemical; settings: for inhibition of Lysozyme: 100% saliva samples (data not shown); for RFU Reading (60 mins): saliva, test compound prepared at 5,000 ppm; for Lysozyme Inhibitor Activity: dilute (3.5%) saliva, FIG. 12
Text: At least one assay used for the detection of […], as used herein includes the use of a Micrococcus lysodeikticus labeled with fluorescein. The assay measures lysozyme activity on Micrococcus lysodeikticus cell walls, which are labeled to such a degree that the fluorescence is quenched. Lysozyme activity can relieve this quenching; yielding increased fluorescence that is proportional to lysozyme activity.
For the assay, test compounds are mixed with saliva, prior to the addition of lysozyme substrate. The test compounds, such as GRAS materials, are prepared at a concentration of 5,000 ppm in distilled water. Following this preparation, 50 μl of lysozyme substrate at 1 mg/ml (Molecular Probes EnzChek Lysozyme Assay Kit) that has been pre-heated to 37° C. is added to 50 μl of the test compound. To initiate the assay, 50 μl of a dilute (3.5%) or full strength (100%) saliva solution is added to the mixture. Following the initiation, each mixture is measured at 1 minute intervals using a spectrophotometer (such as Molecular Devices M5 reader) for absorption at 494 nm and fluorescence emission at 518 nm. Temperatures of the mixtures are kept constant at 37° C. during the assay.
A series of GRAS compounds were tested using the Lysozyme assay protocol described above. […] Further details of these five compounds may also be seen in Table 5.

protease = settings: cited from earlier work

Row | Molecule | peroxidase inhibition (peroxidase) | Galactose Oxidase Inhibitor Activity (Galactose Oxidase) | inhibition of Lysozyme (Lysozyme) | RFU Reading (60 mins) (Lysozyme) [RFU] | Lysozyme Inhibitor Activity (Lysozyme) | Inhibitory power (protease) [times times weight]
1 | COc1ccc(O)c(C(C)(C)C)c1 [CDI-039, 3-tert--butyl-hydroxyanisole] | significant peroxidase inhibition capabilities | shown to have Galactose Oxidase Inhibitor Activity | – | – | – | –
2 | Cn1c(=O)c2c(ncn2C)n(C)c1=O [CDI #33, Caffeine] | significant peroxidase inhibition capabilities | – | – | – | – | –
3 | CC(=O)O [CDI-047, Acetic acid] | – | shown to have Galactose Oxidase Inhibitor Activity | shown to inhibit Lysozyme | 33.53 | shown to have Lysozyme Inhibitor Activity | –
4 | O=C(O)c1ccccc1 [CDI #16, Benzoic acid] | significant peroxidase inhibition capabilities | – | – | – | – | –
5 | O=C(O)c1ccccc1 [CDI-40, Benzoic acid] | – | shown to have Galactose Oxidase Inhibitor Activity | shown to inhibit Lysozyme | 35.82 | shown to have Lysozyme Inhibitor Activity | –
6 | B1 | – | – | – | – | – | 1.2
